From patent publication US6706750B1, “Indole derivatives process for their preparation, pharmaceutical compositions containing them and their medicinal application” (priority 1999, dated 2004)
Where a name gives a salt, the structure may show the parent alone. Read-outs that look alike come from different tables or passages of the source.

Tests used:
h5-HT2A receptors = target: T1, h5-HT2A receptors (Homo sapiens, UniProt P28223); experiment: Functional activity, FLIPR calcium assay in CHO cells expressing h5-HT2A; type: cell-based; settings: for Emax: CHO, read-out: h5-HT2A Relative Efficacy; for EC50: FLIPR, CHO cells
T1 construct: expressed in transfected cells; host or cells: CHO cells
T1 sequence (P28223 whole entry): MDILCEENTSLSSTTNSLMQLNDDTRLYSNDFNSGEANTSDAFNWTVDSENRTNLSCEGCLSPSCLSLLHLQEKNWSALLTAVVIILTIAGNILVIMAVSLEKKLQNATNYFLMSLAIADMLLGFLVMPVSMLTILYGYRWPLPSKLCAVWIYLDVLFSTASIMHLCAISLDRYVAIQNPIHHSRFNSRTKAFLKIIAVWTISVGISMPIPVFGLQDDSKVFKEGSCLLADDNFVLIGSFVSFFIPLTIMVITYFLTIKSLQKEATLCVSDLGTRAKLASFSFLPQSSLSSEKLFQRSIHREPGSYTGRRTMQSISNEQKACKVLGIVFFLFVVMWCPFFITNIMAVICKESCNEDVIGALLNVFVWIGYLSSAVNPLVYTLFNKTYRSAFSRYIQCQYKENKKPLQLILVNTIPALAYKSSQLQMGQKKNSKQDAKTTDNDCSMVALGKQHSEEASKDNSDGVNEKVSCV
Experimental: (§1) The functional activity of compounds of formula (I) was assayed using a Fluorimetric Imaging Plate reader (FLIPR) in the following manner.
(§2) CHO cells expressing either the h5-HT2C or h5-HT2A receptors were counted and plated into standard 96 well microtitre plates before the day of testing to give a confluent monolayer. The following day the cells were dye loaded with the calcium sensitive dye Fluo 3-AM by incubation with serum free culture maintenance media containing pluronic acid and Fluo 3-AM dissolved in DMSO at 37° C. in a CO2 incubator at 95% humidity for approximately 90 minutes. Unincorporated dye was removed by washing with Hanks balanced salt solution containing 20 mM HEPES and 2.5 mM probenecid (the assay buffer) using an automated cell washer to leave a total volume of 100 μL/well.
(§3) The drug (dissolved in 50 μL of assay buffer) was added at a rate of 70 μL/sec to each well of the FLIPR 96 well plate during fluorescence measurements. The measurements are taken at 1 sec intervals and the maximum fluorescent signal was measured (approx 10-15 secs after drug addition) and compared with the response produced by 10 μM 5-HT (defined as 100%) to which it is expressed as a percentage response (relative efficacy). Dose response curves were constructed using Graphpad Prism (Graph Software Inc.).

h5-HT2C = target: T2, h5-HT2C (Homo sapiens, UniProt P28335); experiment: Functional activity, FLIPR calcium assay in CHO cells expressing h5-HT2C; type: cell-based; settings: for Emax: CHO, read-out: h5-HT2C Relative Efficacy; for EC50: FLIPR, CHO cells
T2 construct: expressed in transfected cells; host or cells: CHO cells
T2 sequence (P28335 33-458): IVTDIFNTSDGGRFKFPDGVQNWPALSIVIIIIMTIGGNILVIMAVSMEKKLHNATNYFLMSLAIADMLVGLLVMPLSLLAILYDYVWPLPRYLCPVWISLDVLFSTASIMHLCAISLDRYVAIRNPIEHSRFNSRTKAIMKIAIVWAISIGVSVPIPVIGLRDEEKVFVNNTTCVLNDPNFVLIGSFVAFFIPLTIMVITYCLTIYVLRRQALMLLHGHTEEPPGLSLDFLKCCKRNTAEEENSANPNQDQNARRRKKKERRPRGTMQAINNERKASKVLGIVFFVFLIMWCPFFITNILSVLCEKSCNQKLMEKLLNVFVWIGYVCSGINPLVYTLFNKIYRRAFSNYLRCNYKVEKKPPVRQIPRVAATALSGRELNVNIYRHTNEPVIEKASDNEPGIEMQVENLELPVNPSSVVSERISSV
Experimental: as §1, §2, §3

human 5-HT2B receptors = target: T3, human 5-HT2B receptors (Homo sapiens, UniProt P41595); experiment: Radioligand binding to the 5-HT2B receptor ([3H]-5-HT, CHO cell line)
T3 construct: expressed in transfected cells; host or cells: CHO cell line
T3 sequence (P41595 whole entry): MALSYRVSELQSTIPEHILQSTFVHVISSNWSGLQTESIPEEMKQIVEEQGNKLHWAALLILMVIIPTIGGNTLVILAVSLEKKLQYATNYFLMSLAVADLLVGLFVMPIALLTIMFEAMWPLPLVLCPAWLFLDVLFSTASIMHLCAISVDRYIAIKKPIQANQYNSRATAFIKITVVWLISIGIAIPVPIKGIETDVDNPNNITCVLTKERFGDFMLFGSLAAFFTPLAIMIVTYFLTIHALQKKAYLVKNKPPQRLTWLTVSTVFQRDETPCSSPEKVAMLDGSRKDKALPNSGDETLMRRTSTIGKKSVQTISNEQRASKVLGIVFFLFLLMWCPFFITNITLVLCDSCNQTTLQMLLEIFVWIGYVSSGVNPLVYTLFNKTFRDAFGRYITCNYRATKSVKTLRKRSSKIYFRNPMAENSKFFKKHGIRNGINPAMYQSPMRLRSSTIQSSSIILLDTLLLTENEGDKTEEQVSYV
Experimental: (§4) 1. Binding to Serotonin Receptors
(§5) The binding of compounds of formula (I) to serotonin receptors was determined in vitro by standard methods. The preparations were investigated in accordance with the assays given hereinafter.
Method (b): For the binding to the 5-HT2B receptor the 5-HT2B receptors were radiolabelled with [^3H]-5-HT. The affinity of the compounds for human 5-HT2B receptors in a CHO cell line was determined according to the procedure of K. Schmuck, C. Ullmer, P. Engels and H. Lubbert, FEBS Lett., 1994, 342, 85-90.

5-HT2C receptor = target: T4, 5-HT2C receptor (Homo sapiens, UniProt P28335); experiment: Radioligand binding to the 5-HT2C receptor ([3H]-5-HT, CHO cell line)
T4 construct: expressed in transfected cells; host or cells: CHO cell line
T4 sequence (P28335 33-458): T2 sequence (P28335 33-458)
Experimental: as §4, §5
Method (a): For the binding to the 5-HT2C receptor the 5-HT2C receptors were radiolabelled with [^3H]-5-HT. The affinity of the compounds for 5-HT2C receptors in a CHO cell line was determined according to the procedure of D. Hoyer, G. Engel and H.O. Kalkman, European J. Pharmacol., 1985, 118, 13-23.

5-HT2A receptor = target: T5, 5-HT2A receptor (Homo sapiens, UniProt P28223); experiment: Radioligand binding to the 5-HT2A receptor ([125I]-DOI, CHO cell line)
T5 construct: expressed in transfected cells; host or cells: CHO cell line
T5 sequence (P28223 whole entry): as the sequence (P28223 whole entry) above
Experimental: as §4, §5
Method (c): For the binding to the 5-HT2A receptor the 5-HT2A receptors were radiolabelled with [^125I]-DOI. The affinity of the compounds for 5-HT2A receptors in a CHO cell line was determined according to the procedure of D. J. McKenna and S. J. Peroutka, J. Neurosci., 1989, 9/10, 3482-90.

[1] = cited from earlier work
[2] = cited from earlier work; remark: listed apart in the source
[3] = maximum fluorescent signal compared with 10 μM 5-HT (defined as 100%)
[4] = [3H]-5-HT, human receptor, CHO cell line, read-out: Ki(2B)
[5] = [3H]-5-HT, CHO cell line, read-out: Ki(2C)
[6] = [125I]-DOI, CHO cell line, read-out: Ki(2A)

Row | Compound | melting point | Emax (h5-HT2A receptors; [3]) [%] | Emax (h5-HT2C; [3]) [%] | EC50 (h5-HT2C) [nM] | other results
1 | C[C@H](N)Cn1c2c(c3c(Cl)cc(Cl)cc31)CCC2 (as salt: hydrochloride) (hydrate or solvate) [Example 26] | 258 °C |  |  |  | 
2 | C[C@H](N)Cn1c2c(c3c(Cl)cccc31)CCC2 [Example 4, (S)-1-(8-chloro-1,2,3,4-tetrahydrocyclopent[b]indol-4-yl)-2-propylamine] |  | 60 | 65 | 179 | 
3 | C[C@H](N)Cn1c2c(c3cc(F)ccc31)CCC2 [Example 2, (S)-1-(7-fluoro-1,2,3,4-tetrahydrocyclopent[b]indol-4-yl)-2-propylamine] |  | 0 | 85 | 347 | 
4 | C[C@H](N)Cn1c2c(c3cc(F)c(Cl)cc31)CCC2 [Example 16] |  | 0 | 86 | 307 | 
5 | COc1c(F)ccc2c1c1c(n2C[C@H](C)N)CCC1 [Example 42, (S)-1-(7-fluoro-8-methoxy-1,2,3,4-tetrahydrocyclopent[b]indol-4yl)-2-propylamine] |  | 51 | 74 | 87 | EC50 (h5-HT2A receptors): 805 nM
6 | C[C@H](N)Cn1c2c(c3c(Cl)c(F)ccc31)CCC2 [Example 18, (S)-1-(8-chloro-7-fluoro-1,2,3,4-tetrahydrocyclopent[b]indol-4-yl)-2-propylamine] |  | 63 | 75 | 36 | EC50 (h5-HT2A receptors): 2100 nM
7 | C[C@H](N)Cn1c2c(c3c(Cl)c(F)ccc31)CCC2 (as salt: hydrochloride) (hydrate or solvate) [Example 18, (S)-1-(8-chloro-7-fluoro-1,2,3,4-tetrahydrocyclopent[b]indol-4-yl)-2-propylamine] | 252 to 253 °C |  |  |  | 
8 | C[C@@H](N)Cn1c2c(c3ccccc31)CCC2 (as salt: hydrochloride) (hydrate or solvate) [Example 30, (R)-1-(1,2,3,4-tetrahydrocyclopent[b]indol-4-yl)-2-propylamine] | 225 to 231 °C (dec.) |  |  |  | 
9 | C[C@H](N)Cn1c2c(c3ccccc31)CCC2 (as salt: hydrochloride) (hydrate or solvate) [Example 14, (S)-1-(1,2,3,4-tetrahydrocyclopent[b]indol-4-yl)-2-propylamine] | 233 °C |  |  |  | 
10 | COc1cc2c(cc1F)c1c(n2C[C@H](C)N)CCC1 [Example 37, (S)-1-(7-fluoro-6-methoxy-1,2,3,4-tetrahydrocyclopent[b]indol-4-yl)-2-propylamine] |  | 28 | 84 | 127 | Ki (human 5-HT2B receptors): 65 nM; Ki (5-HT2C receptor): 41 nM; Ki (5-HT2A receptor): 86 nM; EC50 (h5-HT2A receptors): 2990 nM
11 | C[C@H](N)Cn1c2c(c3c(Cl)cc(Cl)cc31)CCC2 [Example 26] |  |  |  |  | Ki (human 5-HT2B receptors; [4]): 127 nM; Ki (5-HT2C receptor; [5]): 106 nM; Ki (5-HT2A receptor; [6]): 144 nM
12 | CCSc1ccc2c3c(n(C[C@H](C)N)c2c1)CCC3 [Example 27] |  |  |  |  | Ki (human 5-HT2B receptors; [4]): 496 nM; Ki (5-HT2C receptor; [5]): 141 nM; Ki (5-HT2A receptor; [6]): 545 nM
13 | CC(N)Cn1c2c(c3cc(F)c(F)cc31)CCC2 (stereo not shown) [Example 33] |  | 22 | 81 | 316 | Ki (human 5-HT2B receptors): 152 nM; Ki (5-HT2C receptor): 63 nM; Ki (5-HT2A receptor): 233 nM
14 | CCSc1ccc2c3c(n(C[C@H](C)N)c2c1)CCC3 (as salt: hydrochloride) [Example 27] | 115 to 119 °C |  |  |  | 
15 | (R)-1-(7-Fluoro-1,2,3,4-tetrahydro-6-methoxy-cyclopent[b]indol-4-yl)-2-propylamine, hemifumarate [Example 36] |  |  |  | 189 | EC50 (h5-HT2A receptors): 1340 nM; h5-HT2A Relative Efficacy (h5-HT2A receptors; [3]): 25%; h5-HT2C Relative Efficacy (h5-HT2C; [3]): 64%
16 | C[C@H](N)Cn1c2c(c3ccc(F)cc31)CCC2 (as salt: hydrochloride) (hydrate or solvate) [Example 31] | 215 °C |  |  |  | 
17 | C[C@H](N)Cn1c2c(c3c(F)c(F)ccc31)CCC2 [Example 1, (S)-1-(7,8-Difluoro-1,2,3,4-tetrahydrocyclopent[b]indol-4-yl)-2-propylamine fumarate] |  | 0 | 77 | 272 | Ki (human 5-HT2B receptors): 40 nM; Ki (5-HT2C receptor): 65 nM; Ki (5-HT2A receptor): 122 nM
18 | FC(F)(F)c1cccc(N2CCNCC2)c1 [TFWPP, trifluoromethylphenylpiperazine] |  |  |  |  | food intake in rats [1]: reduce food intake
19 | C[C@H](N)Cn1c2c(c3c(Cl)cccc31)CCC2 (as salt: fumarate) [Example 4, (S)-1-(8-chloro-1,2,3,4-tetrahydrocyclopent[b]indol-4-yl)-2-propylamine] | 172 to 173 °C (dec.) |  |  |  | 
20 | C[C@H](N)Cn1c2c(c3cc(F)ccc31)CCC2 (as salt: fumarate) (hydrate or solvate) [Example 2, (S)-1-(7-fluoro-1,2,3,4-tetrahydrocyclopent[b]indol-4-yl)-2-propylamine] | 161 to 162 °C |  |  |  | 
21 | COc1cc2c(cc1F)c1c(n2C[C@H](C)N)CCC1 (as salt: fumarate) [Example 37, (S)-1-(7-fluoro-6-methoxy-1,2,3,4-tetrahydrocyclopent[b]indol-4-yl)-2-propylamine] | 213 °C (dec.) |  |  |  | 
22 | C[C@H](N)Cn1c2c(c3ccccc31)CCC2 [Example 14, (S)-1-(1,2,3,4-tetrahydrocyclopent[b]indol-4-yl)-2-propylamine] |  | 48 | 80 | 252 | Ki (human 5-HT2B receptors): 180 nM; Ki (5-HT2C receptor): 64 nM; Ki (5-HT2A receptor): 375 nM; EC50 (h5-HT2A receptors): 6250 nM
23 | C[C@@H](N)Cn1c2c(c3cccc(Cl)c31)CCC2 [Example 43] | 299 to 302 °C |  |  |  | Ki (human 5-HT2B receptors; [4]): 162 nM; Ki (5-HT2C receptor): 62 nM; Ki (5-HT2A receptor; [6]): 167 nM
24 | C[C@H](N)Cn1c2c(c3ccc(F)cc31)CCC2 [Example 31] |  |  |  |  | Ki (human 5-HT2B receptors; [4]): 161 nM; Ki (5-HT2C receptor): 65 nM; Ki (5-HT2A receptor; [6]): 550 nM
25 | COc1ccc2c3c(n(C[C@H](C)N)c2c1)CCC3 [Example 11, (S)-1-(6-methoxy-1,2,3,4-tetrahydrocyclopent[b]indol-4-yl)-2-propylamine] |  | 25 | 85 | 89 | Ki (human 5-HT2B receptors): 210 nM; Ki (5-HT2C receptor): 63 nM; Ki (5-HT2A receptor): 314 nM; EC50 (h5-HT2A receptors): 1690 nM
26 | C[C@@H](N)Cn1c2c(c3ccccc31)CCC2 [Example 30, (R)-1-(1,2,3,4-tetrahydrocyclopent[b]indol-4-yl)-2-propylamine] |  | 43 | 72 | 90 | Ki (human 5-HT2B receptors): 31 nM; Ki (5-HT2C receptor): 19 nM; Ki (5-HT2A receptor): 48 nM; EC50 (h5-HT2A receptors): 361 nM
27 | COc1ccc2c3c(n(C[C@H](C)N)c2c1)CCC3 (as salt: fumarate) [Example 11, (S)-1-(6-methoxy-1,2,3,4-tetrahydrocyclopent[b]indol-4-yl)-2-propylamine] | 182 °C |  |  |  | 
28 | Clc1cccc(N2CCNCC2)c1 [mCPP, m-chlorophenylpiperazine] |  |  |  |  | appetite and body weight of obese subjects ([2]; obese male and female subjects, subchronic treatment for 14 days): decreased the appetite and body weight; food intake in female volunteers ([2]; single injection, female volunteers): decreased food intake; food intake in rats [1]: reduce food intake
